Laboratory results from ChEMBL document CHEMBL1201862, “PubChem BioAssay data set” (2004).
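96-well plates; 48 h exposure; 5 concentrations. Endpoints by linear interpolation between flanking doses. Not reached: highest tested concentration assigned. GI50 is the concentration that inhibits growth by half.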 Calls of active or inactive are those of the source. Rule as the data show it: active = GI50 up to about 1.1 µM and inactive = higher.

What was measured:
Experiment in all cases: NCI anticancer screen, dose series, 48 h
786-0 = test system: 786-0
A549 = test system: A549
ACHN = test system: ACHN
BT-549 = test system: BT-549
CAKI-1 = test system: CAKI-1
CCRF-CEM = test system: CCRF-CEM
COLO 205 = test system: COLO 205
DU-145 = test system: DU-145
EKVX = test system: EKVX
HCC 2998 = test system: HCC 2998
HCT-116 = test system: HCT-116
HCT-15 = test system: HCT-15
HL-60 = test system: HL-60
HOP-62 = test system: HOP-62
HOP-92 = test system: HOP-92
HT-29 = test system: HT-29
Hs-578T = test system: Hs-578T
IGROV-1 = test system: IGROV-1
K562 = test system: K562
LOX IMVI = test system: LOX IMVI
M14 = test system: M14
MCF7 = test system: MCF7
MDA-MB-231 = test system: MDA-MB-231
MDA-MB-435 = test system: MDA-MB-435
MOLT-4 = test system: MOLT-4
Malme-3M = test system: Malme-3M
NCI-H226 = test system: NCI-H226
NCI-H23 = test system: NCI-H23
NCI-H460 = test system: NCI-H460
NCI-H522 = test system: NCI-H522
NCI/ADR-RES = test system: NCI/ADR-RES
OVCAR-3 = test system: OVCAR-3
OVCAR-4 = test system: OVCAR-4
OVCAR-5 = test system: OVCAR-5
OVCAR-8 = test system: OVCAR-8
PC-3 = test system: PC-3
RPMI-8226 = test system: RPMI-8226
RXF 393 = test system: RXF 393
SF-268 = test system: SF-268
SF-295 = test system: SF-295
SF-539 = test system: SF-539
SK-MEL-28 = test system: SK-MEL-28
SK-MEL-2 = test system: SK-MEL-2
SK-MEL-5 = test system: SK-MEL-5
SK-OV-3 = test system: SK-OV-3
SN12C = test system: SN12C
SNB-19 = test system: SNB-19
SNB-75 = test system: SNB-75
SR = test system: SR
SW-620 = test system: SW-620
T47D = test system: T47D
TK-10 = test system: TK-10
UACC-257 = test system: UACC-257
UO-31 = test system: UO-31
KM12 = test system: KM12
U-251 = test system: U-251

Measured: GI50

CC(=O)N1C(Nc2ccccc2)CCN1c1ccccc1 (stereo not drawn)
3.66 µM: HCT-15
inactive: 786-0 > 10 µM | A549 > 10 µM | ACHN 4.22 µM | BT-549 > 10 µM | CAKI-1 8.73 µM | CCRF-CEM > 10 µM | COLO 205 > 10 µM | DU-145 > 10 µM | EKVX > 10 µM | HCC 2998 > 10 µM | HCT-116 > 10 µM | HL-60 5.08 µM | HOP-62 > 10 µM | HOP-92 > 10 µM | HT-29 5.77 µM | Hs-578T > 10 µM | IGROV-1 > 10 µM | K562 4.04 µM | LOX IMVI > 10 µM | M14 > 10 µM | MCF7 > 10 µM | MDA-MB-231 > 10 µM | MDA-MB-435 3.68 µM | MOLT-4 9.77 µM | Malme-3M 5.38 µM | NCI-H226 > 10 µM | NCI-H23 > 10 µM | NCI-H460 > 10 µM | NCI-H522 > 10 µM | NCI/ADR-RES 9.89 µM | OVCAR-3 > 10 µM | OVCAR-4 > 10 µM | OVCAR-5 > 10 µM | OVCAR-8 > 10 µM | PC-3 4.01 µM | RPMI-8226 > 10 µM | RXF 393 > 10 µM | SF-268 3.54 µM | SF-295 3.96 µM | SF-539 5.19 µM | SK-MEL-28 > 10 µM | SK-MEL-2 > 10 µM | SK-MEL-5 > 10 µM | SK-OV-3 > 10 µM | SN12C > 10 µM | SNB-19 > 10 µM | SNB-75 > 10 µM | SR > 10 µM | SW-620 5.64 µM | T47D > 10 µM | TK-10 > 10 µM | UACC-257 > 10 µM | UO-31 4.45 µM

Cc1cc(OC(=O)NCn2cc(-c3ccccc3)nn2)ccc1Cl
97.9 µM: HCT-15
inactive: 786-0 > 100 µM | A549 95.5 µM | ACHN > 100 µM | BT-549 68.9 µM | CAKI-1 83.2 µM | CCRF-CEM 72.8 µM | COLO 205 > 100 µM | DU-145 68.7 µM | EKVX > 100 µM | HCC 2998 16.3 µM | HCT-116 85.7 µM | HL-60 44.3 µM | HOP-62 69.3 µM | HOP-92 67.1 µM | HT-29 73.5 µM | IGROV-1 37.7 µM | K562 76.4 µM | KM12 > 100 µM | LOX IMVI 66.8 µM | M14 67.3 µM | MCF7 > 100 µM | MDA-MB-231 > 100 µM | MOLT-4 28.3 µM | Malme-3M 88.1 µM | NCI-H226 > 100 µM | NCI-H23 96.6 µM | NCI-H460 67.6 µM | NCI-H522 54.2 µM | NCI/ADR-RES 83.4 µM | OVCAR-4 78.7 µM | OVCAR-5 > 100 µM | OVCAR-8 92.7 µM | PC-3 > 100 µM | RPMI-8226 78.2 µM | SF-268 48.4 µM | SF-295 > 100 µM | SF-539 54.2 µM | SK-MEL-28 > 100 µM | SK-MEL-2 48.3 µM | SK-MEL-5 > 100 µM | SN12C > 100 µM | SNB-19 91.2 µM | SNB-75 29.8 µM | SR 83 µM | SW-620 > 100 µM | TK-10 > 100 µM | U-251 > 100 µM | UACC-257 > 100 µM
